Measurements as given in US4221909A, “P-Acetamidobenzoic acid salts of 9-(hydroxyalkyl) purines” (Sloan-Kettering Institute for Cancer Research, priority 1978, dated 1980).
≈ marks a conversion by molar mass, not a printed value.

Legend:
[1] = test system: guinea pig peritoneal macrophages; assay: Lymphokine Induced (MMF) Guinea Pig Macrophage Proliferation; assay type: cell-based
Text: The following three assay procedures are used to evaluate the ability of the test substances to modulate the activity of several classes of cells in the immune system. In these systems it is possible to identify both immunopotentiating activity (evidence by an enhancement of the parameter examined) as well as immunosuppressant activity (evidenced by an inhibition of the parameter examined).
3. The macrophage represents a subpopulation of white blood cells which is an important component of the immune system in control of both cellular and humoral immunity. The assay system described below evaluates the substances studied as potentiators of macrophage function.
Phytohemagglutinin(PHA) (HA-17) was purchased from Burroughs Wellcome. A preparation containing Macrophage Mitogen Factor (MMF) and Macrophage Activating Factor (MAF) was prepared from antigen-stimulated immune lymph node lymphocytes (guinea pig) as previously described by Hadden et al, Nature 257, 483-485 (1975). […] The active fraction was employed in both the proliferation and activation assays.
Ficoll-hypaque purified human peripheral blood lymphocytes were prepared and PHA-induced lymphocyte proliferation was assayed by the incorporation of tritiated thymidine as described in Hadden et al, Cell. Immunol. 20, 98-103 (1975). Each compound was analyzed in the presence of suboptimal, optimal and supraoptimal concentrations of PHA (0.001, 0.01, 0.1 units/ml respectively). Paraffin oil-induced guinea pig peritoneal macrophages were prepared and incubated as monolayer culture (>98% pure macrophages). Lymphokine (MMF)-induced proliferation was assayed by the incorporation of triturated thymidine at 3 and 5 days of culture as described, Hadden et al, Nature 257, 483-485 (1975). Lymphokine (MAF)-induced macrophage activation to kill Listeria monocytogenes following 5 days of culture in the presence or absence of MAF was performed during a 6 hour period as described in Hadden and England, Immunopharmacology, pages 87-100 (Plenum Press, 1977). Phagocytosis was quantitated during a 20-minute exposure to Listeria monocytogenes by counting the number of macrophages containing bacteria and the number of bacteria per phagocytic cell on gram stained monolayers in Labtek chambers. Intracellular killing of bacteria was evaluated by counting the number of cells containing bacteria and the number of bacteria/cell 6 hours after the initial 20 minute exposure. Parallel experiments in which macrophages were lysed and intracellular bacteria were cultured confirm the validity of bacterial activity determined by this manner in this sytem. The drugs were employed in each of the three systems over serial log concentration range in triplicate in the presence and absence of mitogen or lymphokine. Each type of experiment was performed at least three times. Previous experiments indicate a parallelism of response to pharmacologic modulation in the proliferation and activation assays.

spleen cells [2] = assay: In vitro treatment of Con A stimulated spleen cells; assay type: cell-based, mice (Balb/C); conditions: compound 1 μg/ml; suboptimal Con A 5 μg/ml
Text: (§1) The purpose of this study was to determine the effects of in vivo treatment of mice with the compounds NPT 15392 and 15410 on the subsequent activity of spleen cells isolated from these animals and evaluated in vitro for their proliferative response to the mitogen, Concanavalin A (Con A).
(§2) The following day, each group was sacrificed and the spleens removed and pooled. The spleens were minced and the cells washed in RPMI-1640 medium (Grand Island Biologicals) supplemental with 2 mm glutamine and antibiotics. The cell concentration of each preparation was determined by a Coulter counter and adjusted to 5×10^6 cells/ml with RPMI medium.
Microtiter assays were carried out in 0.2 ml incubations, containing 5×10^5 cells and Con A or Con A and compounds at the indicated concentrations. All assays were performed with 6 replicates and compared with a blank assay containing only cells. The assay plates were incubated at 37° in 5% CO2 for 4 days. During the final 18-20 hours of incubation, […] of ^3 HTdR (10 μCi/ml, 6 Ci /m mole) were added to each culture. The cultures were harvested with a multiple automatic sample harvester (MASH) unit and the incorporated ^3 HTdR determined with a Beckman LS 8000 liquid scintillation counter, as a measure of cell proliferation. The results are tabulated as the ratio of the activity in the Con A or Con A and compound treated cultures to the blank cultures. […]

spleen cells [3] = assay: In vivo treatment of mice: effect on in vitro stimulation of spleen cell proliferation by Con A; design: species or system mice (Balb/C); conditions: oral, twice daily for 1 day; for response of spleen cells to Con A versus placebo: Con A 10 μg/ml; for subsequent response of the spleen cells, in vitro, to Con A stimulation: suboptimal Con A 5 μg/ml
Method: as §1
Nine male Balb/C mice, 8-9 weeks old, weighing 18-20 gms were divided into three groups. One group was treated twice daily (for 1 day), in the morning and afternoon, with an oral dose of NPT 15392 at 10 mg/kg. The second group was similarly treated with NPT 15410 at 20 mg/kg. A third group, dosed with saline served as a placebo control.
as §2
Microtiter assays were carried out in 0.2 ml incubations, containing 5×10^5 cells and Con A or Con A and compounds at the indicated concentrations. All assays were performed with 6 replicates and compared with a blank assay containing only cells. The assay plates were incubated at 37° in 5% CO2 for 4 days. During the final 18-20 hours of incubation, 0.5 ml of ^3 HTdR (10 μCi/ml, 6 Ci /m mole) were added to each culture. The cultures were harvested with a multiple automatic sample harvester (MASH) unit and the incorporated ^3 HTdR determined with a Beckman LS 8000 liquid scintillation counter, as a measure of cell proliferation. The results are tabulated as the ratio of the activity in the Con A or Con A and compound treated cultures to the blank cultures.

L-1210 cells = assay: Anti-Leukemic Activity (Inhibition of L-1210 Growth); assay type: cell-based, mouse
Method: Leukemic cells isolated from mice bearing the L-1210 tumor are cultured in vitro and their growth can be measured by counting the number of cells in the culture over a period of time. The incorporation of a test substance into the media will prevent the growth of the leukemic cells, an indication of an effective anti-leukemic agent.
Check to see that there is adequate cell growth in the stock cultures. Use cells 48-72 hours after transfers are done.
Weigh out the drugs at 50 times the desired final concentration and made serial dilutions.
Make up the final medium using 500 mls McCoy's 5A medium, 15% fetal calf serum, 5 mls penicillin-streptomycin solution, and 5 mls antibiotic-antimycotic solution and let it stand at room temperature.
Using sterile technique, add 0.1 ml of the drug dilutions to each tube.
Add an appropriate quantity of cells to the prepared medium. After mixing, remove a 0.5 ml sample, place it in a vial containing […] of saline, and count it on the Coulter Counter. Multiply the count by 40 to compensate for the 40 fold dilution (0.5 ml into […] and record the inoculum.
Add 5 mls of cell suspension to each tube. Swirl the bottle every 4 tubes to insure a more uniform distribution of cells.
Tighten the caps and place in the CO2 incubator at 36°-38° for 96 hours. […]

[4] = test system: human peripheral blood lymphocytes; assay: Mitogen Induced (PHA) Human Lymphocyte Proliferation; assay type: cell-based

SMILES	Maximum Percent Change, Lymphokine Induced (MMF) Guinea Pig Mac. Prolif. ([1]; 1.0-10, listed as 15418) [%]	Maximum Percent Change, Lymphokine Induced (MMF) Guinea Pig Mac. Prolif. ([1]; 10-100) [%]	Maximum Percent Change, Lymphokine Induced (MMF) Guinea Pig Mac. Prolif. ([1]; .01-1.0) [%]	augmentation of Con A stimulation (spleen cells [2])	response of spleen cells to Con A versus placebo (spleen cells [3])	subsequent response of the spleen cells, in vitro, to Con A stimulation (spleen cells [3])	IC50 (L-1210 cells; Mus musculus, L1210, 96 h, 96 hours, text: μg/ml, read-out: I50 (concentration of drug inhibiting growth of L-1210)) [µg/mL]	Maximum Percent Change, Mitogen Induced (PHA) Human Lymph. Prolif. ([4]; 1.0-10) [%]	Maximum Percent Change, Mitogen Induced (PHA) Human Lymph. Prolif. ([4]; 10-100) [%]	Maximum Percent Change, Mitogen Induced (PHA) Human Lymph. Prolif. ([4]; .01-1.0)	Maximum Percent Change, Lymphokine Induced (MMF) Guinea Pig Mac. Prolif. ([1]; 1.0-10, listed as 15417) [%]	DIP.PAcBA potentiation of Anti-Leukemia activity (L-1210 cells; DIP.PAcBA salt vs parent compound)	Maximum Percent Change, Lymphokine Induced (MMF) Guinea Pig Mac. Prolif. ([1]; 1.0-10) [%]
CCCCCCC(CO)n1cnc2c(=O)[nH]cnc21 (centres unmarked) [NPT 15418]	80	-50	12										
CCCCCC[C@H]([C@H](C)O)n1cnc2c(=O)[nH]cnc21 (relative stereo) [NPT 15392, Erythro-9-(2-Hydroxy-3-Nonyl)Hypoxanthine]				marked ability to augment the Con A stimulation	No significant differences	increases the subsequent response of the spleen cells							
CCCCCCC(CO)n1cnc2c(=O)[nH]cnc21 (centres unmarked) [NPT 15417]		-50					47 (≈ 178 µM)	0	-50	0%	13		
CCCCCC[C@H]([C@H](C)O)n1cnc2c(=O)[nH]cnc21 (relative stereo) [NPT 15410]			12	marked ability to augment the Con A stimulation	No significant differences	increases the subsequent response of the spleen cells		60		30-50%		Yes	23
